The values below come from patent US8680129B2, “Compounds, composition, methods, targets for cancer therapy” (priority 2008, dated 2014).

Test [1] deals with HEKa, SK-Mel-5, Cal27, UM-SCC6 and HT1080 cells. The test can be described thus: Differential cellular responses to mPMS, cell viability, all lines. Type of test: cell-based, human. To be noted: 30, 40 or 50 μM mPMS 4 hours, then 24 hours. As to the method:
(§1) Non cancer human keratinocyte (HEKa), SK-Mel-5 human malonoma cell line (SK5), human head and neck cancer cell Cal27 line (Cal27) and UM-SCC6 line (SCC6) cells and human soft tissue sarcoma cell line HT1080 (HT1080) were treated with 30, 40 or 50 μM mPMS for 4 hours and then cultured in normal growth medium for another 24 hours. Cell viabilities were measured with CCK8 kit.

In test [2] the test system is UM-SCC6 cells. The test can be described thus: mPMS dose-response with WST-1c and apigenin, cell viability. Type of test: cell-based, human. Conditions: for IC50: read-out: mPMS1050. As to the method:
(§2) Method: A & B: HT1080 (FIG. 16A) and UM-SCC6 (FIG. 16B) cells were treated with variable concentrations of mPMS as indicated in combination with 1 mM WST-1c and 10, 30 or 100 μM apigenin for 4 hours and, then, changed to normal growth medium for another 24 hours. Cell viabilities were measured by CCK8 Kit. 1 mM WST-1 only, 0.12 mM mPMS only and 10% WST-1r were used as parallel control. AP 0: Untreated Control, AP 10: 10 μM Apigenin, AP 30: 30 μM Apigenin, AP 100: 100 μM Apigenin.

Test [3] relates to HT1080 cells. The description is as above. To be noted: mPMS variable with 1 mM WST-1c and 10, 30 or 100 μM apigenin. Type of test: cell-based, human. As to the method: as §2
Test [4] deals with UM-SCC6 cells. The test can be described thus: WST-3 with or without mPMS plus apigenin, cell viability. Type of test: cell-based, human. Conditions: 30 μM mPMS added to 0.1 mM WST-3 and 30 μM apigenin. The protocol: (§3) Method: UM-SCC6, HT1080, Cal127, SK-Mel-5, and HEKa cells were treated with 0.1 mM WST-3 plus 30 μM mPMS, or WST-3 only, or untreated control in combination with 10 or 30 μM apigenin for 4 hours and, then, changed to normal growth medium and remained culture in this medium for another 24 hours. After the 24 hours culture, cell viabilities were measured with CCK8 Kit. Data were normalized to % of untreated control cells.

For test [5], the system named is Cal27 cells. Described as above. It counts as cell-based, human. To be noted: 30 μM mPMS added to 0.1 mM WST-3 and 30 μM apigenin. The protocol: as §3
The subject of test [6] is non cancer human keratinocyte (HEKa). The test can be described thus: Differential cellular responses to mPMS, cell viability. Type of test: cell-based. As to the method: as §1
The subject of test [7] is Cal27, UM-SCC6 and HT1080 cells. The description is as above. Type of test: cell-based, human. Conditions: Cal27, UM-SCC6 and HT1080 cells 'respectively', only two values printed; read-out: 1050 of mPMS. The protocol:
as §1

Test [8] has as its system HT1080 cells. The test can be described thus: siRNA or Puc19 transfection, IKK inhibitor III and WST-1r triple combination, CCK8. To be noted: IKK inhibitor 24 hours, then WST-1r 4 hour. Type of test: cell-based, human. As to the method: Method: HT1080 cells were transfected with siRNA#3, or the siRNA targeting MAGI3, and TMEM182 that were derived from Puc19 DNA sequence and the siRNAs that targeting the corresponding genes that are the targets of the Puc19 derived siRNAs for 24 hours, then, treated with IKK inhibitor III for 24 hours followed by adding WST-1r for another 4 hour. After the 4 hours WST-1r treatment, cells in culture were changed to normal growth medium for 24 hours. Cell viability were monitored by CCK8 Kit every 24 hours. Data were normalized to % of untreated control cells. AllStar siRNA was used as negative siRNA trasnfection control. Puc19 DNA vector transfection was used as positive control.
Data label: Untreated control: 0 Ctrl, WST-1r only: 10 Ctrl, pUC19 transfected cells: 0 p9, pUC19 transfected and WST-1r treated: 10 p9, AllStar negative contrl siRNA transfected: 0 AllStar, AllStar transfected and WST-1r treated: 10 AllStar, siRNA#3 transfected: 0 siRNA#3, siRNA#3 transfcted and WST-1r treated: 10 siRNA#3, siRNAMAGI3 transfected: 0 MAGI3, siRNA MAGI3 transfcted and WST-1r treated: 10 MAGI3, siRNATMEM182 transfected: 0 TMEM182, siRNATMEM182 transfcted and WST-1r treated: 10 TMEM182,

The test system of test [9] is SK-Mel-5 human melanoma cells. The test can be described thus: WST-1r then IKK inhibitor III, cell viability by CCK8. Type of test: cell-based. Conditions: WST-1r 1% and 3% 4 hours, then BMS345541 3 and 10 μM 24 hours; combination 3% WST-1r and 10 μM BMS345541. The protocol: (§4) Method: SK-Mel-5 and T294 human melanoma cells were treated with WST-1r at 1% and 3% final concentration respectively as indicated for 4 hours, then, removed WST-1r by changing to normal growth medium and added IKK inhibitor III for another 24 hours. After 24 hours treatment with 3 μM and 10 μM IKK inhibitor III respectively as indicated, cells were changed to grow in normal growth medium for 48 hours before measuring cell viability by CCK8 Kit.

In test [10] the test system is T294 human melanoma cells. Described as above. It counts as cell-based. To be noted: WST-1r 1% and 3% 4 hours, then BMS345541 3 and 10 μM 24 hours; combination 3% WST-1r and 10 μM BMS345541. As to the method:
as §4

Test [11] concerns HT1080 cells. The test can be described thus: DNA transfection, IKK inhibitor III and WST-1 combination, cell viability by CCK8. Type of test: cell-based, human. As to the method:
Methods: HT1080 cells were cultured in 96 well plates and transfected with one of the pUC19, pcDNA3, IKK1-KA, IKK1-KA+PUC19, or pcDNA3+pUC19 DNA vectors for 24 hours followed with treatment of IKK Inhibitor IIII at 3-30 μM for another 24 hours and, then, treated with 10% WST-1 for 4 hours and cultured overnight before detection. The same treatments of cells were measured at 24, 48 and 96 hours after WST-1 treatment. Cell viability was measured by Cell Count Kit 8 (CCK8).
Background: Tetrazolium dyes change colour on reduction, which living cells bring about.

The test system of test [12] is ROS generation in UM-SCC6 cells. The test can be described thus: Dose response of ROS generation (CM-H2-DCFDA fluorescence). Type of test: cell-based, human. The protocol: Method: UM-SCC6 cells were labeled with 10 μM CM-H2-DCFDA for 15 minutes and then treated with WST-1r or CCK8 at the indicated amounts in combination with variable doses of apigenin (A) or IKK Inhibitor III (B) for 4 hours. Fluorescence at Ex485/Em535 were measured for detecting ROS generation that labeled by the CM-H2-DCFDA.

For test [13], the system named is ROS generation in HT1080 cells. The test can be described thus: ROS labeling with CM-H2-DCFDA (imaging). It counts as cell-based, human. To be noted: cells transfected with pUC19, no exposure to WST-1. The protocol:
Methods: HT1080 cells were cultured in cover slices and transfected with pUC19 and treated with IKK inhibitor III in sequential. Following these treatment, the cells, thus, treated, were either labeled with CM-H2-DCFDA, a fluorescence dye that can labeling ROS in cells, and, then, treated with WST-1 for 30 minutes (FIG. 23A) or treated with WST-1 for 2 hours and then labeled with CM-H2-DCFDA (FIG. 23-B). The results were recorded by a digital camera with Spotlight software. Manuel exposure levels were used to maintain the same exposure level for comparison.

“And” between values parts separate entries of the source, which are not always exact repeats. Equal entries are not always repeated. Where two headings read alike, the source gives them in different places.

Regarding “1-methoxy-5-methyl-phenazinium methyl sulfate [mPMS]”, the “cell death and sensitivity to mPMS” value in test [1] was “mPMS dose dependent cell death and differential sensitivities to mPMS treatment”. Also, the IC50 was 30 µM in test [2] (combination of apigenin 100 μM and mPMS+WST-1); 80 µM in [2] (untreated control cells (no apigenin)); 50 µM in [6] (mPMS 4 hours, then 24 hours); 20 µM and 30 µM in test [7]. Moreover, the cell death entry in [2] (mPMS variable with 1 mM WST-1c and 10, 30 or 100 μM apigenin) is “dose dependent cell death”; in test [3], “dose dependent cell death”. Moreover, the “effect of adding mPMS on cell death” value in test [4] and in test [5] was “further synergize the cell death” throughout. Besides, in test [6] (compared with the cancer cell lines), the “sensitivity to mPMS treatment” value is given as “least sensitivity to mPMS treatment”.
For the compound `Cc1ccc2nc(NCCN)c3ncc(C)n3c2c1` [IKK inhibitor III], the cell death result in test [8] was “dose dependent cell death”; in [9] it was “dose dependent increase of cell deaths”; in test [10], “dose dependent increase of cell deaths”. Moreover, the “cell death by morphology examination” value in test [11] (30 μM, 24 hours after the WST-1 treatment) is “majority of the 30 μM IIKK inhibitor III treated cells died”. Moreover, in test [11] (cells transfected with any of the DNA vectors, IKK inhibitor III 3-30 μM, 24, 48 and 96 hour after WST-1 treatment, vs non transfected control), the “induction of cell death” value is listed as “significant IKK inhibitor III dose dependent induction of cell death”. In addition, the ROS levels result in test [12] (5 μM IKK Inhibitor, alone and with WST-1r) was “increased ROS levels”; in test [12] (10 μM IKK Inhibitor III, alone and with WST-1r), “decreased it”; in [12] (IKK Inhibitor III combined with CCK8), “no combined effect with CCK8 on ROS levels”. Besides, the “labeled ROS” value in test [13] is reported as “IKK inhibitor III dose dependent labeled ROS”.
